LC retention time data for 25 compounds are collected here from the RepoRT retention time repository (doi:10.1007/s00216-021-03828-0).

Settings in all cases: stereoisomer not certain
The nature of data set [1]: RP, Merck Supelco Ascentis Express C18, 100 × 2.1 mm, 2 µm, 40 °C, 0.4 mL/min, estimated dead time 0.55 min; A: water + 0.1% formic acid, pH 3; B: acetonitrile + 0.1% formic acid, pH 3; gradient (min/%B) 0/5 2/5 17/99.9 20/99.9.
Data set [2] is described as follows: RP, Merck Supelco Ascentis Express C18, 100 × 2.1 mm, 2 µm, 40 °C, 0.2 mL/min, estimated dead time 1.1 min; A: water + 0.1% formic acid, pH 3; B: acetonitrile + 0.1% formic acid, pH 3; gradient (min/%B) 0/5 2/5 17/99.9 20/99.9.
The nature of data set [3]: RP, Merck Supelco Ascentis Express C18, 100 × 2.1 mm, 2 µm, 40 °C, 0.25 mL/min, estimated dead time 0.88 min; A: water + 0.1% formic acid, pH 3; B: acetonitrile + 0.1% formic acid, pH 3; gradient (min/%B) 0/5 2/5 17/99.9 20/99.9.
Data set [4] is described as follows: RP, Merck Supelco Ascentis Express C18, 100 × 2.1 mm, 2 µm, 40 °C, 0.4 mL/min, estimated dead time 0.55 min; A: water + 0.1% formic acid, pH 3; B: acetonitrile + 0.1% formic acid, pH 3; gradient (min/%B) 0/5 2/5 17/99.9 20/99.9. This is another data set of the same source.
A short description of data set [5]: RP, Merck Supelco Ascentis Express C18, 100 × 2.1 mm, 2 µm, 39 °C, 0.3 mL/min, estimated dead time 0.73 min; A: water + 0.1% formic acid, pH 3; B: acetonitrile + 0.1% formic acid, pH 3; gradient (min/%B) 0/5 2/5 17/99.9 20/99.9.
Data set [6] in a line: RP, Merck Supelco Ascentis Express C18, 100 × 2.1 mm, 2 µm, 40 °C, 0.35 mL/min, estimated dead time 0.63 min; A: water + 0.1% formic acid, pH 3; B: acetonitrile + 0.1% formic acid, pH 3; gradient (min/%B) 0/5 2/5 17/99.9 20/99.9.
A short description of data set [7]: RP, Merck Supelco Ascentis Express C18, 100 × 2.1 mm, 2 µm, 40 °C, 0.2 mL/min, estimated dead time 1.1 min; A: water + 0.1% formic acid, pH 3; B: acetonitrile + 0.1% formic acid, pH 3; gradient (min/%B) 0/5 2/5 17/99.9 20/99.9. This is another data set of the same source.

Molecules are shown by their SMILES.

As for `O=C(O)c1ccc2ccccc2c1O` [1-HYDROXY-2-NAPHTHOATE], the LC retention time in data set [1] is 8.56 min; in data set [2], 10.4 min; in data set [3], 9.77 min; in data set [4] it was 8.61 min; in data set [5] it was 9.28 min; in data set [6], 8.9 min. Besides, in data set [7], the LC retention time was 10.4 min.

Take `Cn1cnc2c(ncn2C2OC(CO)C(O)C2O)c1=N` (stereo unspecified) [1-METHYLADENOSINE]: the LC retention time in data set [1] is 0.993 min; in data set [2], 2.01 min; in data set [3], 1.58 min; in data set [4] it was 1.01 min; in data set [5] it was 1.31 min; in data set [6], 1.16 min. Further, the LC retention time in data set [7] is 2.01 min.

On to `CC(=O)c1ccc(O)cc1O` [2',4'-DIHYDROXYACETOPHENONE], for which the LC retention time in data set [1] was 5.14 min; in data set [2], 7 min; in data set [3] it was 6.34 min; in data set [4], 5.17 min; in data set [5], 5.94 min; in data set [6] it was 5.5 min. The LC retention time in data set [7] was 7.01 min.

As to `O=C(O)c1cccc(O)c1O` [2,3-DIHYDROXYBENZOATE], the LC retention time in data set [1] is 1.52 min; in data set [2] it was 5.32 min; in data set [3], 2.44 min; in data set [4] it was 1.53 min; in data set [5] it was 2.06 min; in data set [6], 3.88 min. Besides, in data set [7], the LC retention time is 5.33 min.

`O=c1[nH]c(=O)c2nccnc2[nH]1` [2,4-DIHYDROXYPTERIDINE]: the LC retention time was 0.687 min in data set [1]; 1.41 min in data set [2]; 1.13 min in data set [3]; 0.7 min in data set [4]; 0.967 min in data set [5]; 0.783 min in data set [6]. In data set [7], the LC retention time is 1.41 min.

As to `O=C(O)c1cc(O)ccc1O` [2,5-DIHYDROXYBENZOATE], the LC retention time in data set [1] was 2.63 min; in data set [2], 4.65 min; in data set [3], 4.02 min; in data set [4], 2.66 min; in data set [5], 3.5 min; in data set [6], 3.04 min. The LC retention time in data set [7] is 4.65 min.

On to `CSCCC(O)C(=O)O` (stereo unspecified) [2-HYDROXY-4-(METHYLTHIO)BUTANOATE], for which the LC retention time in data set [1] is 1.86 min; in data set [2], 3.75 min; in data set [3], 3 min; in data set [4], 1.9 min; in data set [5] it was 2.49 min; in data set [6], 2.15 min. Besides, in data set [7], the LC retention time was 3.75 min.

Regarding `O=C(O)Cc1ccccc1O` [2-HYDROXYPHENYLACETATE], the LC retention time in data set [1] is 2.88 min; in data set [2], 4.83 min; in data set [3] it was 4.19 min; in data set [4], 2.95 min; in data set [5] it was 3.67 min; in data set [6], 3.28 min. For the same compound, the LC retention time in data set [7] is 4.85 min.

On to `CC(CCC(=O)O)C(=O)O` (stereo unspecified) [2-METHYLGLUTARATE], for which the LC retention time was 2.02 min in data set [1]; 3.27 min in data set [3]; 2.05 min in data set [4]; 2.33 min in data set [6]; 3.99 min in data set [7].

In the case of `O=C(O)c1ccc(O)c(O)c1` [3,4-DIHYDROXYBENZOATE], the LC retention time in data set [1] was 1.52 min; in data set [2] it was 3.06 min; in data set [3] it was 2.44 min; in data set [4] it was 1.53 min; in data set [5] it was 2.06 min; in data set [6], 1.76 min. In data set [7], the LC retention time is 3.05 min.

`O=C(O)Cc1ccc(O)c(O)c1` [3,4-DIHYDROXYPHENYLACETATE]: the LC retention time is 2.02 min in data set [1]; 3.92 min in data set [2]; 3.22 min in data set [3]; 1.95 min in data set [4]; 2.67 min in data set [5]; 2.32 min in data set [6]. Also, the LC retention time in data set [7] is 3.97 min.

In the case of `N[C@@H](Cc1cc(I)c(Oc2ccc(O)cc2)c(I)c1)C(=O)O` [3,5-DIIODO-L-THYRONINE], the LC retention time is 5.98 min in data set [1]; 7.22 min in data set [2]; 6.77 min in data set [3]; 6.02 min in data set [4]; 6.45 min in data set [5]; 6.19 min in data set [6]. For the same compound, the LC retention time in data set [7] is 7.21 min.

In the case of `N[C@@H](Cc1cc(I)c(O)c(I)c1)C(=O)O` [3,5-DIIODO-L-TYROSINE], the LC retention time is 4.03 min in data set [1]; 5.37 min in data set [2]; 4.89 min in data set [3]; 4.07 min in data set [4]; 4.54 min in data set [5]; 4.26 min in data set [6]. For the same compound, the LC retention time in data set [7] is 5.38 min.

For the compound `NCC(=O)CCC(=O)O` [5-AMINOLEVULINATE], the LC retention time in data set [1] was 0.74 min; in data set [2], 1.53 min; in data set [4], 0.737 min; in data set [5], 1.01 min; in data set [6] it was 0.853 min; in data set [7] it was 1.51 min.

For the compound `O=C(O)CCCCC(=O)O` [ADIPATE], the LC retention time in data set [1] was 2.02 min; in data set [3], 3.27 min; in data set [4], 2.04 min; in data set [6], 2.33 min; in data set [7], 3.99 min.

Take `CCC=CCC=CCC=CCC=CCC=CCC=CCCC(=O)O` [DOCOSAHEXAENOATE]: the LC retention time was 14.5 min in data set [1]; 15.8 min in data set [3]; 14.5 min in data set [4]; 14.8 min in data set [6]; 16.5 min in data set [7].

Turning to `CCCCCCCCC=CCCCCCCCC(=O)O` [ELAIDATE], the LC retention time was 16 min in data set [1]; 18.1 min in data set [2]; 16.1 min in data set [4]; 16.8 min in data set [5]; 16.4 min in data set [6]; 18.2 min in data set [7].

As to `CCCCCCCCCCCCCCCCC(=O)O` [HEPTADECANOATE], the LC retention time is 16.3 min in data set [1]; 17.7 min in data set [3]; 16.4 min in data set [4]; 16.7 min in data set [6]; 18.5 min in data set [7].

As to `O=C(O)Cc1c[nH]c2ccccc12` [INDOLE-3-ACETATE], the LC retention time in data set [1] was 5.56 min; in data set [2], 7.21 min; in data set [3] it was 6.63 min; in data set [4], 5.6 min; in data set [5], 6.2 min; in data set [6], 5.84 min.

Turning to `COC(=O)Cc1c[nH]c2ccccc12` [INDOLE-3-METHYL ACETATE], the LC retention time in data set [1] was 8.4 min; in data set [3], 8.62 min; in data set [4], 7.46 min; in data set [5] it was 8.12 min; in data set [6] it was 8.75 min; in data set [7] it was 10.2 min.

Regarding `CC(C(=O)O)C(=O)O` [METHYLMALONATE], the LC retention time in data set [1] is 0.807 min; in data set [3], 1.37 min; in data set [4], 0.863 min; in data set [6] it was 0.957 min; in data set [7] it was 1.71 min.

Consider `CC(O)(CCO)CC(=O)[O-]` (stereo unspecified) [MEVALONATE], for which the LC retention time is 0.73 min in data set [1]; 1.57 min in data set [2]; 1.2 min in data set [3]; 0.72 min in data set [4]; 0.863 min in data set [6]; 1.55 min in data set [7].

Turning to `O=C([O-])Cc1ccccc1` [PHENYLACETATE], the LC retention time in data set [1] is 3.93 min; in data set [3] it was 3.45 min; in data set [4] it was 3.95 min; in data set [5] it was 4.5 min; in data set [6], 4.56 min; in data set [7] it was 4.08 min.

On to `C[Se]CCC(N)C(=O)O` (stereo unspecified) [SELENOMETHIONINE], for which the LC retention time was 0.683 min in data set [1]; 1.37 min in data set [2]; 1.07 min in data set [3]; 0.887 min in data set [5]; 0.763 min in data set [6]; 1.37 min in data set [7].

On to `CCCCCCCCCCCCCCCCCC(=O)[O-]` [STEARATE], for which the LC retention time in data set [1] is 16.9 min; in data set [3] it was 18.3 min; in data set [4] it was 16.9 min; in data set [6] it was 17.2 min; in data set [7], 19.1 min.
